Source: patent US9493455B2, “Azaindole derivatives as inhibitors of protein kinases” (ORIBASE PHARMA, priority 2012, dated 2016)

Tests used:
[1] = target: T1, FGFR2 (Homo sapiens, UniProt P21802); experiment: In vitro kinase assay (Z′-LYTE); format: biochemical; details: read-out: % of inhibition of the kinase compared to the control
T1 construct: purchased Invitrogen
Procedure, shortened: (§1)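 Peptide/kinase mix combined with ATP (apparent Km) in 50 mM HEPES pH 7.5, 10 mM MgCl2, 1 mM EGTA, 0.01% BRIJ-35; compound present at 100 nM, except 10 μM for ABL T315I; DMSO 1% final. Protease development, then FRET emission ratio.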

[2] = target: T2, ABL (Homo sapiens, UniProt P00519); experiment: In vitro kinase assay (Z′-LYTE); format: biochemical; details: read-out: % of inhibition of the kinase compared to the control
T2 construct: purchased Invitrogen

[3] = target: T3, EGFR (ErbB1) T790M L858R (Homo sapiens, UniProt P00533, L858R/T790M); experiment: In vitro kinase assay (Z′-LYTE); format: biochemical; details: read-out: % of inhibition of the kinase compared to the control
T3 construct: purchased Invitrogen
T3 sequence (P00533 25-1210 T790M/L858R): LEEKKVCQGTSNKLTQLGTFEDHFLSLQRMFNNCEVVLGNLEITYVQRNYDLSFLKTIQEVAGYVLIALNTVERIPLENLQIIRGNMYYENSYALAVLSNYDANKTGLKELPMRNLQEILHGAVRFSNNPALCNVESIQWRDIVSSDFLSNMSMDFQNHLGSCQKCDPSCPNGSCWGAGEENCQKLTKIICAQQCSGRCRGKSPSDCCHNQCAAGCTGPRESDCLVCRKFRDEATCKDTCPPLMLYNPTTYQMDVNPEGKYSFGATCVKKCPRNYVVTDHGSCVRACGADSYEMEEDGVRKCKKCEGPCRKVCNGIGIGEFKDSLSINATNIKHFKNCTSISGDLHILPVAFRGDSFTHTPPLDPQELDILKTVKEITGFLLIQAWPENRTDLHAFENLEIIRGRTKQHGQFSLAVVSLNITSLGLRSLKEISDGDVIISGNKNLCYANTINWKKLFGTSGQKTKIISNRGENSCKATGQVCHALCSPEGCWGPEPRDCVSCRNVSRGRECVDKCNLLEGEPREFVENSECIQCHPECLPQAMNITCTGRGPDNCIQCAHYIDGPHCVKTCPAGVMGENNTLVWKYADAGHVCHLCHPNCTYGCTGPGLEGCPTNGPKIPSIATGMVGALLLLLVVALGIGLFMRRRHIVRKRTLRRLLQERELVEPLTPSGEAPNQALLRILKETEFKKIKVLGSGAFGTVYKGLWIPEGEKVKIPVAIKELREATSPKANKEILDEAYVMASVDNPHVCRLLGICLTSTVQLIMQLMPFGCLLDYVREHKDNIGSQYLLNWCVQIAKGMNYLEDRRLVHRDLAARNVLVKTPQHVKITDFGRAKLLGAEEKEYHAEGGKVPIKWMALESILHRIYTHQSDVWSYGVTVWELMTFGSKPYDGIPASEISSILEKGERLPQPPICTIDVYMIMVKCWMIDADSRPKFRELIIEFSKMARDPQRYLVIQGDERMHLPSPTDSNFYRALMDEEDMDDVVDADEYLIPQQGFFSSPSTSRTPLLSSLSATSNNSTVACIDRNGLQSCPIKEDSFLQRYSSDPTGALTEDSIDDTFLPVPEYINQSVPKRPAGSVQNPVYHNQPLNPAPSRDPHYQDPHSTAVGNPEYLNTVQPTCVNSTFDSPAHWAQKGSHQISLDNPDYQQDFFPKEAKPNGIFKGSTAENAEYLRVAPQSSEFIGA
Procedure, shortened: as §1

[4] = target: T4, EGFR (ErbB1) (Homo sapiens, UniProt P00533); experiment: In vitro kinase assay (Z′-LYTE); format: biochemical; details: read-out: % of inhibition of the kinase compared to the control
T4 construct: purchased Invitrogen
T4 sequence (P00533 25-1210): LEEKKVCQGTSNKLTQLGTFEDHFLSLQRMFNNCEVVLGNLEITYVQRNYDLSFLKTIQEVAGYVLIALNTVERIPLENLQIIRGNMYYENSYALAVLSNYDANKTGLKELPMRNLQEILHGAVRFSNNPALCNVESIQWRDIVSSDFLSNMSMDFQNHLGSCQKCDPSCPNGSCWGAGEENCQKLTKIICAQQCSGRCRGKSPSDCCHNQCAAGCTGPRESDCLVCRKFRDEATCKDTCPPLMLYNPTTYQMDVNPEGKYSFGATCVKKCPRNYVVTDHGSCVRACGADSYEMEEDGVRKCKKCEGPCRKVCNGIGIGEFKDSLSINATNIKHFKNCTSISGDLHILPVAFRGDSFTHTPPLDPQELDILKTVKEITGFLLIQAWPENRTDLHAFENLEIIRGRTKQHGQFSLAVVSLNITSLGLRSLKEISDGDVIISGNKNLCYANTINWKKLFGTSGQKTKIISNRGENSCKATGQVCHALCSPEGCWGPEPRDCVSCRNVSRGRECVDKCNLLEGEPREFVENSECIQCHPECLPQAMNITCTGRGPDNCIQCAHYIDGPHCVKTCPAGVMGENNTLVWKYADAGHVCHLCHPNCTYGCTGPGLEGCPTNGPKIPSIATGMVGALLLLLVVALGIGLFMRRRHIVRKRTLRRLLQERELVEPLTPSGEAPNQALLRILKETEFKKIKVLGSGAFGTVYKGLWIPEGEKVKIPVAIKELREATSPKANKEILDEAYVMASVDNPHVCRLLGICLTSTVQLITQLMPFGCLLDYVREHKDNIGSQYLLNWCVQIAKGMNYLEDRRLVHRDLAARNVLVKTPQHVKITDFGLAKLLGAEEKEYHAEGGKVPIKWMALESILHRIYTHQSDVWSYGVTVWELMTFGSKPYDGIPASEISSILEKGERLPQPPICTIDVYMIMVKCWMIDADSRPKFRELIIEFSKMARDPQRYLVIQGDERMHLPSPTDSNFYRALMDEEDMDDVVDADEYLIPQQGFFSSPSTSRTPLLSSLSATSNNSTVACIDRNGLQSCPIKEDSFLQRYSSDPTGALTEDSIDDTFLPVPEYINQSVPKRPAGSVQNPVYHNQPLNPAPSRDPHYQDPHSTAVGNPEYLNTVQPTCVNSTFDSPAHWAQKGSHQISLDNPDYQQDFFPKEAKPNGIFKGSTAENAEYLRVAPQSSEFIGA
Procedure, shortened: as §1

[5] = target: T5, FGFR1 (Homo sapiens, UniProt P11362); experiment: In vitro kinase assay (Z′-LYTE); format: biochemical; details: read-out: % of inhibition of the kinase compared to the control
T5 construct: purchased Invitrogen
Procedure, shortened: as §1

[6] = target: T6, ABL T315I (Homo sapiens, UniProt P00519, T315I); experiment: In vitro kinase assay (Z′-LYTE); format: biochemical; details: read-out: % of inhibition of the kinase compared to the control
T6 construct: purchased Invitrogen
Procedure, shortened: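 Percent inhibition is derived from a coupled-enzyme fluorescence format in which unphosphorylated FRET peptide is preferentially proteolysed. Compounds are screened once at 100 nM (10 μM against ABL T315I) in 1% DMSO, with ATP at its apparent Km.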

[7] = target: T7, BRAF (Homo sapiens, UniProt P15056); experiment: In vitro kinase assay (Z′-LYTE); format: biochemical; details: compound 100 nM; ATP 100 μM; read-out: % of inhibition of the kinase compared to the control
T7 construct: purchased Invitrogen
T7 sequence (P15056 whole entry): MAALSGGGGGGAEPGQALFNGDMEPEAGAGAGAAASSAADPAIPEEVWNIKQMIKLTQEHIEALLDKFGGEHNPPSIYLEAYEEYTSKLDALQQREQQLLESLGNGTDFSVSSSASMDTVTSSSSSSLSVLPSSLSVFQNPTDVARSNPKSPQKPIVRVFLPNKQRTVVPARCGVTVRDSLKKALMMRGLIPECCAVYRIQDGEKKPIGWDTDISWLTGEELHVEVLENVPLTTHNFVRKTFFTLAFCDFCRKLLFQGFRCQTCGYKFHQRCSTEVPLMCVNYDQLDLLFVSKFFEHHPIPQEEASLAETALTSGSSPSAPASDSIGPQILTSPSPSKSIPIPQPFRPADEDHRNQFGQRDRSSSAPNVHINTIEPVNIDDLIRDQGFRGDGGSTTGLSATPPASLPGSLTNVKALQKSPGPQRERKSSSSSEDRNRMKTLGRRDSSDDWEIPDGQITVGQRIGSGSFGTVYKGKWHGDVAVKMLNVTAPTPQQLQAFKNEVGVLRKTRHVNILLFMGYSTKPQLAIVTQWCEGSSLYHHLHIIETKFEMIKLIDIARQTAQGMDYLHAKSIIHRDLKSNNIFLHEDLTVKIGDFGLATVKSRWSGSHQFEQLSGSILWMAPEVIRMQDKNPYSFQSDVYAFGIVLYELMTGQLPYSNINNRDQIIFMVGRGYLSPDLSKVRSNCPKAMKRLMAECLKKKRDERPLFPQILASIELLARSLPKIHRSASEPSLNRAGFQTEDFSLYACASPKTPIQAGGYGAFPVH
Procedure, shortened: as §1

[8] = target: T8, PDGFRA (PDGFR alpha) (Homo sapiens, UniProt P16234); experiment: In vitro kinase assay (Z′-LYTE); format: biochemical; details: read-out: % of inhibition of the kinase compared to the control
T8 construct: purchased Invitrogen
T8 sequence (P16234 24-1089): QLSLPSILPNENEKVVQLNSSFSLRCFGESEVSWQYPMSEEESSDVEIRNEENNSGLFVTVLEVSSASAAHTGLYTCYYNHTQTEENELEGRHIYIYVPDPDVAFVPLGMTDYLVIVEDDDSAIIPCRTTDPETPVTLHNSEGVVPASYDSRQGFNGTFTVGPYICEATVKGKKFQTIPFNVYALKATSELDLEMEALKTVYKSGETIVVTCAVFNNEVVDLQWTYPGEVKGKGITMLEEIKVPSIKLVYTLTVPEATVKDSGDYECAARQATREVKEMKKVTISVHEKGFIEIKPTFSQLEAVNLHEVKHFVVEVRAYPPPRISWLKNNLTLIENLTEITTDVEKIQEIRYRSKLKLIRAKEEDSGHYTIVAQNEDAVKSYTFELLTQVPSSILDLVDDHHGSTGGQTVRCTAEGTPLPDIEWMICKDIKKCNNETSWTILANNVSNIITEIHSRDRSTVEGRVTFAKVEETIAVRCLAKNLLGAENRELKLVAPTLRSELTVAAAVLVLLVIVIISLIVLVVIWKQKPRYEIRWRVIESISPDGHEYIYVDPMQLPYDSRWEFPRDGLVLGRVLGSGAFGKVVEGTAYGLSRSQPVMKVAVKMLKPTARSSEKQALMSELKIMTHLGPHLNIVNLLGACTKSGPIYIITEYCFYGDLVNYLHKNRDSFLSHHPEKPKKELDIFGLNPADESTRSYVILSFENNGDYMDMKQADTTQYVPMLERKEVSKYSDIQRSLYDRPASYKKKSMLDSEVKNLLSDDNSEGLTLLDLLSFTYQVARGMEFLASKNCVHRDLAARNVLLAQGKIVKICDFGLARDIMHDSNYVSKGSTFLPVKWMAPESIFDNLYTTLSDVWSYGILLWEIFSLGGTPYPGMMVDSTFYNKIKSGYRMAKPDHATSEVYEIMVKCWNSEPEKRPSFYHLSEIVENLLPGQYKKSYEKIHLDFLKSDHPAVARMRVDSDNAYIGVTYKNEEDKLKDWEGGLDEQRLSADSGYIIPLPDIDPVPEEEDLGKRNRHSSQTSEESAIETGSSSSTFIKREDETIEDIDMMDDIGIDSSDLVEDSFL
Procedure, shortened: as §1

[9] = target: T9, VEGFR1 (Homo sapiens, UniProt P17948); experiment: In vitro kinase assay (Z′-LYTE); format: biochemical; details: read-out: % of inhibition of the kinase compared to the control
T9 construct: purchased Invitrogen
Procedure, shortened: as §1

[10] = target: T10, PDGFRB (Homo sapiens, UniProt P09619); experiment: In vitro kinase assay (Z′-LYTE); format: biochemical; details: read-out: % of inhibition of the kinase compared to the control
T10 construct: purchased Invitrogen
Procedure, shortened: as §1

[11] = target: T11, KDR (VEGFR2) (Homo sapiens, UniProt P35968); experiment: In vitro kinase assay (Z′-LYTE); format: biochemical; details: read-out: % of inhibition of the kinase compared to the control
T11 construct: purchased Invitrogen
Procedure, shortened: as §1

[12] = target: T12, SRC (Homo sapiens, UniProt P12931); experiment: In vitro kinase assay (Z′-LYTE); format: biochemical; details: read-out: % of inhibition of the kinase compared to the control
T12 construct: purchased Invitrogen
Procedure, shortened: as §1

[13] = system: BxPC-3; experiment: In vitro cell proliferation assay (MTT); format: cell-based; details: Homo sapiens, BXPC-3, 72 h
Procedure, shortened: (§2)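 MTT read-out of proliferation after 72 hr compound exposure; 5×10^3 cells/well, duplicate wells, dose range 10 nM–3 μM.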

[14] = system: HRMEC; experiment: In vitro cell proliferation assay (MTT); format: cell-based; details: 72 h
Procedure, shortened: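 Cells were seeded at 5×10^3 per well and exposed in duplicate to escalating compound concentrations from 10 nM to 3 μM for 72 hr. Proliferation was then measured by MTT reduction.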

[15] = system: A549; experiment: In vitro cell proliferation assay (MTT); format: cell-based; details: Homo sapiens, A549, 72 h
Procedure, shortened: as §2

[16] = system: HepG2; experiment: In vitro cell proliferation assay (MTT); format: cell-based; details: Homo sapiens, HepG2, 72 h
Procedure, shortened: as §2

[17] = system: HUVEC; experiment: In vitro cell proliferation assay (MTT); format: cell-based; details: Homo sapiens, 72 h
Procedure: Cancer cell lines (5×10^3 cells per well) or HUVEC (1×10^4 cells per well) or HRMEC (1×10^4 cells per well) were distributed in 96-well plates and incubating in duplicate with escalating concentrations (10 nM to 3 μM) of compounds for 72 hr. Cell proliferation was measured using MTT (3 [4,5-dimethylthiazol-2-yl]-2,5-diphenyltetrazolium bromide).

[18] = system: H1975; experiment: In vitro cell proliferation assay (MTT); format: cell-based; details: Homo sapiens, NCI-H1975, 72 h
Procedure, shortened: as §2

[19] = system: HT29; experiment: In vitro cell proliferation assay (MTT); format: cell-based; details: Homo sapiens, HT-29, 72 h
Procedure, shortened: as §2

[20] = system: HuCCT1; experiment: In vitro cell proliferation assay (MTT); format: cell-based; details: Homo sapiens, HuCCT-1, 72 h
Procedure, shortened: as §2

[21] = system: Caki-2; experiment: In vitro cell proliferation assay (MTT); format: cell-based; details: Homo sapiens, CAKI-2, 72 h
Procedure, shortened: as §2

[22] = system: MDA-MB-231; experiment: In vitro cell proliferation assay (MTT); format: cell-based; details: Homo sapiens, MDA-MB-231, 72 h
Procedure, shortened: as §2

[23] = system: HuH7; experiment: In vitro cell proliferation assay (MTT); format: cell-based; details: Homo sapiens, Huh-7, 72 h
Procedure, shortened: as §2

[24] = system: HuH6 Clone 5; experiment: In vitro cell proliferation assay (MTT); format: cell-based; details: HUH-6-clone5, 72 h
Procedure, shortened: as §2

[25] = system: HeLa; experiment: In vitro cell proliferation assay (MTT); format: cell-based; details: Homo sapiens, 72 h
Procedure, shortened: as §2

[26] = system: PC-3; experiment: In vitro cell proliferation assay (MTT); format: cell-based; details: Homo sapiens, PC-3, 72 h
Procedure, shortened: as §2

T1 sequence (P21802 22-821): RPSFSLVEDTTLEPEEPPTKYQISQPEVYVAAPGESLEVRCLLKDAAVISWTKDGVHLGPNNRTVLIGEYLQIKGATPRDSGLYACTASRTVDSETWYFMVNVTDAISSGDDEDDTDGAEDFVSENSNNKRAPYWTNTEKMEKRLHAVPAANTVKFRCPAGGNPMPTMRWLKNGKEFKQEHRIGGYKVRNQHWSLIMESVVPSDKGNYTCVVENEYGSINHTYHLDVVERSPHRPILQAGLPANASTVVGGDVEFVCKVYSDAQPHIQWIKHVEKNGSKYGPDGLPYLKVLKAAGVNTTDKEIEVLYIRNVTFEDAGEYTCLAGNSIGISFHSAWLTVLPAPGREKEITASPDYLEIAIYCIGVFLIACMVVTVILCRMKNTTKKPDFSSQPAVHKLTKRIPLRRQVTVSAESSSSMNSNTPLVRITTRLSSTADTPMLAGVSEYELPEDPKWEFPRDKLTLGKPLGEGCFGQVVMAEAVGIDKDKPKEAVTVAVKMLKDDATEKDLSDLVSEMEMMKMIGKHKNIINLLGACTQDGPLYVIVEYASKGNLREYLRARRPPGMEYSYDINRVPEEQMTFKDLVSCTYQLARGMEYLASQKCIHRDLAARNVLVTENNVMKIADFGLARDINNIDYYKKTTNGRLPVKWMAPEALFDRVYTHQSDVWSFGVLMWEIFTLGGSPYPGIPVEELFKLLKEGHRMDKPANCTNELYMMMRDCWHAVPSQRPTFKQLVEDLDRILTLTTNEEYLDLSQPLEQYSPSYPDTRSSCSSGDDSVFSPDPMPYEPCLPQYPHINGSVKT

| SMILES | inhibition at 0.1 µM [1] [%] | inhibition at 10 µM [2] [%] | inhibition at 0.1 µM [3] [%] | inhibition at 0.1 µM [4] [%] | inhibition at 0.1 µM [5] [%] | inhibition at 10 µM [6] [%] | inhibition at 0.1 µM [7] [%] | inhibition at 0.1 µM [8] [%] | inhibition at 0.1 µM [9] [%] | inhibition at 0.1 µM [10] [%] | inhibition at 0.1 µM [11] [%] | inhibition at 0.1 µM [12] [%] | EC50 [13] [µM] | EC50 [15] [µM] | EC50 [16] [µM] | EC50 [18] [µM] | EC50 [19] [µM] | EC50 [14] [µM] | EC50 [17] [µM] | EC50 [20] [µM] | also measured |
| --- | --- | --- | --- | --- | --- | --- | --- | --- | --- | --- | --- | --- | --- | --- | --- | --- | --- | --- | --- | --- | --- |
| COC(=O)c1cc2cc(NCc3cc(NC(=O)c4ccc5[nH]nnc5c4)ccc3C)cnc2[nH]1 [OR0616] | < 50 | ≥ 50 | < 50 | < 50 | < 50 | < 50 | ≥ 50 | ≥ 50 | < 50 | ≥ 50 | < 50 | < 50 | ≥ 1 | ≥ 1 | ≥ 1 | ≥ 1 | ≥ 1 | ≥ 1 | ≥ 1 |  |  |
| COC(=O)c1cc2cc(NCc3cc(NC(=O)c4ccc5[nH]ccc5c4)ccc3C)cnc2[nH]1 [OR0617] | < 50 | ≥ 50 | < 50 | < 50 | < 50 | < 50 | ≥ 50 | ≥ 50 | < 50 | < 50 | ≥ 50 | ≥ 50 | ≥ 1 | ≥ 1 | 0.1 to 1 | ≥ 1 | ≥ 1 | ≥ 1 | 0.1 to 1 | ≥ 1 |  |
| CCN(CC)CCNC(=O)c1c(C)[nH]c(/C=C2\C(=O)Nc3ccc(F)cc32)c1C [Sunitinib, reference compound] |  |  |  |  |  |  |  |  |  |  |  |  | ≥ 1 |  |  |  |  |  |  |  | EC50 [21]: ≥ 1 µM |

Second part, led by results:

| inhibition at 0.1 µM [1] [%] | inhibition at 10 µM [2] [%] | inhibition at 0.1 µM [3] [%] | inhibition at 0.1 µM [4] [%] | inhibition at 0.1 µM [5] [%] | inhibition at 10 µM [6] [%] | inhibition at 0.1 µM [7] [%] | inhibition at 0.1 µM [8] [%] | inhibition at 0.1 µM [9] [%] | inhibition at 0.1 µM [10] [%] | inhibition at 0.1 µM [11] [%] | inhibition at 0.1 µM [12] [%] | EC50 [13] [µM] | EC50 [15] [µM] | EC50 [16] [µM] | EC50 [18] [µM] | EC50 [19] [µM] | SMILES | EC50 [14] [µM] | EC50 [17] [µM] | EC50 [20] [µM] | also measured |
| --- | --- | --- | --- | --- | --- | --- | --- | --- | --- | --- | --- | --- | --- | --- | --- | --- | --- | --- | --- | --- | --- |
| ≥ 50 |  | ≥ 50 | ≥ 50 |  |  | ≥ 50 | ≥ 50 |  |  | ≥ 50 | ≥ 50 |  | 0.1 to 1 | 0.1 to 1 | ≥ 1 | 0.1 to 1 | COC(=O)c1cc2cc(NC(=O)c3cc(NC(=O)c4ccc(CN5CCN(C)CC5)c(C(F)(F)F)c4)ccc3C)cnc2[nH]1 [OR0744] | 0.1 to 1 | 0.1 to 1 | ≥ 1 | EC50 [22]: 0.1 to 1 µM; EC50 [23]: 0.1 to 1 µM; EC50 [24]: ≥ 1 µM; EC50 [25]: 0.1 to 1 µM |
| < 50 | ≥ 50 | < 50 | ≥ 50 | < 50 | < 50 | ≥ 50 | ≥ 50 | < 50 | ≥ 50 | ≥ 50 | ≥ 50 | 0.1 to 1 | 0.1 to 1 | ≤ 0.1 | ≥ 1 | ≥ 1 | COC(=O)c1cc2cc(NCc3cc(NC(=O)c4cncc(C(F)(F)F)c4)ccc3C)cnc2[nH]1 [OR0604] |  | 0.1 to 1 | ≥ 1 | EC50 [22]: ≤ 0.1 µM; EC50 [23]: 0.1 to 1 µM; EC50 [24]: ≥ 1 µM; EC50 [26]: ≥ 1 µM |
| ≥ 50 | ≥ 50 | ≥ 50 | ≥ 50 | ≥ 50 | ≥ 50 | ≥ 50 | ≥ 50 | < 50 | < 50 | ≥ 50 | ≥ 50 | 0.1 to 1 | 0.1 to 1 | ≤ 0.1 | 0.1 to 1 | ≤ 0.1 | COC(=O)c1cc2cc(NCc3cc(NC(=O)c4ccc(CN5CCNCC5)c(C(F)(F)F)c4)ccc3C)cnc2[nH]1 [OR0613] |  | ≤ 0.1 | ≥ 1 | EC50 [22]: ≤ 0.1 µM; EC50 [23]: 0.1 to 1 µM; EC50 [24]: ≥ 1 µM; EC50 [26]: ≥ 1 µM |
